# Patent US9216998B2, “Tricyclic indole derivatives useful endothelial lipase inhibitors” (Janssen Pharmaceutica, NV, priority 2012, dated 2015)
# Key:
# [1] = target: human endothelial lipase (EL) (Homo sapiens (Human), UniProt Q9Y5X9); experiment: Endothelial lipase assay, cell surface lipase activity (human EL); type: cell-based; conditions: cells expressing human EL, PLA1 substrate 10 μM, fluorescence rate
# Description: (§1) To assay for cell surface lipase activity, cells expressing human endothelial lipase (EL) or LPL were plated in CellBIND® 384-well plates (Corning, Lowell, Mass.) in 25 μL serum free medium at a density of 2000 cells/well. After 18-24 hours incubation at 37° C., the medium was removed and replaced with 15 μL assay buffer [Hank's Buffered Saline Solution with 25 mM HEPES pH 7.2] and 15 μL PLA1 substrate for a final concentration of 10 μM using a Multidrop reagent dispenser. Fluorescence signal was monitored for 30 min at 37° C. on a Safire II plate reader in kinetic mode (60 cycles, kinetic interval: 30 seconds) with an excitation wavelength of 490 nm and an emission wavelength of 515 nm. […] The amount of BODIPY-labeled product generated was calculated at the 30 min time point as determined from standard curve analysis of purified BODIPY FL C5.
# Mouse EL = Mouse EL (Mus musculus (Mouse), UniProt Q9WVG5); experiment: Endothelial lipase assay, cell surface lipase activity (mouse EL); type: cell-based; conditions: PLA1 substrate 10 μM, fluorescence rate
# Chain of Mouse EL (Q9WVG5 21-500): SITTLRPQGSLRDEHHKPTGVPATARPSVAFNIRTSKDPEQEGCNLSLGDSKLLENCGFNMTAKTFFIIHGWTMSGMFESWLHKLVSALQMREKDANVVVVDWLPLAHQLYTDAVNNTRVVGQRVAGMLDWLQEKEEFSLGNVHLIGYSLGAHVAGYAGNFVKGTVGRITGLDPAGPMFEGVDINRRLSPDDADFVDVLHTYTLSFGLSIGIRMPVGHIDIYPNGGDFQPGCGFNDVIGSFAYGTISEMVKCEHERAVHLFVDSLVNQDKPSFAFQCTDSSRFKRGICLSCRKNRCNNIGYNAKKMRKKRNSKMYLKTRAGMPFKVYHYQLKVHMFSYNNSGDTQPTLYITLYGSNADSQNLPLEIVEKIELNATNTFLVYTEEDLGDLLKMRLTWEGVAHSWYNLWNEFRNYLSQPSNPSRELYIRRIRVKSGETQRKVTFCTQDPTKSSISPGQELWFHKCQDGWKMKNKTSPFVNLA
# Description: [The source words this procedure for another species and reports this species under the same test.] as §1
# Chain of human endothelial lipase (EL) (Q9Y5X9 21-500): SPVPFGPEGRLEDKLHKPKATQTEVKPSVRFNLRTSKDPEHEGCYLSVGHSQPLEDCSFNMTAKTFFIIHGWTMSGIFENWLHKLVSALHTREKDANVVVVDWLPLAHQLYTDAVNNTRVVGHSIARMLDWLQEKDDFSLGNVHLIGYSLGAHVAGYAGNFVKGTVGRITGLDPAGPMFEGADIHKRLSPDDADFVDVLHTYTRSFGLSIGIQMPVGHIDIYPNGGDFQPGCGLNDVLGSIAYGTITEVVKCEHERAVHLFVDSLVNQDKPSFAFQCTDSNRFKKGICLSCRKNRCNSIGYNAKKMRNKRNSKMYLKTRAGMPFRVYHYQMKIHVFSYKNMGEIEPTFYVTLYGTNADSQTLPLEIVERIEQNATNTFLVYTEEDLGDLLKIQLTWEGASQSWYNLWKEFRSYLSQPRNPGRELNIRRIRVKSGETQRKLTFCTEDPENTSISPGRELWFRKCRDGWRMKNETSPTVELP
IC50 [1] [nM],IC50 (Mouse EL) [nM],Structure (SMILES)
22,48,"FC(F)(F)c1c(CCc2ccccc2)n2c3c(cccc13)CCC2 [Compound 2, 2-Phenethyl-1-(trifluoromethyl)-5,6-dihydro-4H-pyrrolo[3,2,1-ij]quinoline, reference compound]"
43,36,"FC(F)(F)c1c(CCc2ccccc2)n2c3c(cccc13)CCCC2 [Compound 9, 2-phenethyl-1-(trifluoromethyl)-4,5,6,7-tetrahydroazepino[3,2,1-hi]indole]"
360,1200,FC(F)(F)c1c(CCCc2ccccc2)n2c3c(cccc13)CCCC2 [Compound 11]
135,131,"CC(C)NC(=O)N1CCn2c(CCc3ccccc3)c(C(F)(F)F)c3cccc(c32)C1 [Compound 12, N-isopropyl-6-phenethyl-7-(trifluoromethyl)-3,4-dihydro-[1,4]diazepino[6,7,1-hi]indole-2(1H)-carboxamide]"
150,124,"CC(C)(C)OC(=O)N1CCn2c(CCc3ccccc3)c(C(F)(F)F)c3cccc(c32)C1 [Compound 13, tert-butyl 6-phenethyl-7-(trifluoromethyl)-3,4-dihydro-[1,4]diazepino[6,7,1-hi]indole-2(1H)-carboxylate]"
168,162,"O=C(Nc1ccccc1)N1CCn2c(CCc3ccccc3)c(C(F)(F)F)c3cccc(c32)C1 [Compound 14, 6-phenethyl-N-phenyl-7-(trifluoromethyl)-3,4-dihydro-[1,4]diazepino[6,7,1-hi]indole-2(1H)-carboxamide]"
694,677,"FC(F)(F)c1c(CCc2ccccc2)n2c3c(cccc13)CNCC2 [Compound 15, 6-phenethyl-7-(trifluoromethyl)-1,2,3,4-tetrahydro-[1,4]diazepino[6,7,1-hi]indole]"
959,1000,"CN(C)CC(=O)N1CCn2c(CCc3ccccc3)c(C(F)(F)F)c3cccc(c32)C1 [Compound 16, 2-(dimethylamino)-1-(6-phenethyl-7-(trifluoromethyl)-3,4-dihydro-[1,4]diazepino[6,7,1-hi]indol-2(1H)-yl)ethanone]"
4820,3620,"N=C(N)N1CCn2c(CCc3ccccc3)c(C(F)(F)F)c3cccc(c32)C1 [Compound 17, 6-phenethyl-7-(trifluoromethyl)-3,4-dihydro-[1,4]diazepino[6,7,1-hi]indole-2(1H)-carboximidamide]"
2020,1880,"NCC(=O)N1CCn2c(CCc3ccccc3)c(C(F)(F)F)c3cccc(c32)C1 [Compound 18, 2-amino-1-(6-phenethyl-7-(trifluoromethyl)-3,4-dihydro-[1,4]diazepino[6,7,1-hi]indol-2(1H)-yl)ethanone]"
442,479,"CC(=O)OCC(=O)N1CCn2c(CCc3ccccc3)c(C(F)(F)F)c3cccc(c32)C1 [Compound 20, 2-oxo-2-(6-phenethyl-7-(trifluoromethyl)-3,4-dihydro-[1,4]diazepino[6,7,1-hi]indol-2(1H)-yl)ethyl acetate]"
255,237,"O=C(CC(F)(F)F)N1CCn2c(CCc3ccccc3)c(C(F)(F)F)c3cccc(c32)C1 [Compound 21, 3,3,3-trifluoro-1-(6-phenethyl-7-(trifluoromethyl)-3,4-dihydro-[1,4]diazepino[6,7,1-hi]indol-2(1H)-yl)propan-1-one]"
280,346,"OCCN1CCn2c(CCc3ccccc3)c(C(F)(F)F)c3cccc(c32)C1 [Compound 23, 2-(6-phenethyl-7-(trifluoromethyl)-3,4-dihydro-[1,4]diazepino[6,7,1-hi]indol-2(1H)-yl)ethanol]"
186,340,"CS(=O)(=O)N1CCn2c(CCc3ccccc3)c(C(F)(F)F)c3cccc(c32)C1 [Compound 24, 2-(methylsulfonyl)-6-phenethyl-7-(trifluoromethyl)-1,2,3,4-tetrahydro-[1,4]diazepino[6,7,1-hi]indole]"
39,31,"FC(F)(F)c1c(CCc2ccccc2)n2c3c(cccc13)OCC2 [Compound 25, 5-phenethyl-6-(trifluoromethyl)-2,3-dihydro-[1,4]oxazino[2,3,4-hi]indole]"
413,618,FC(F)(F)c1c(CCCc2ccccc2)n2c3c(cccc13)OCC2 [Compound 26]
82,108,FC(F)(F)c1c(CCCOc2ccccc2)n2c3c(cccc13)OCC2 [Compound 27]

Structure (SMILES),IC50 [1] [nM],IC50 (Mouse EL) [nM]
FC(F)(F)c1c(CCCc2ccccc2)n2c3c(cccc13)CC2 [Compound 1],185,195
FC(F)(F)c1c(Cc2ccccc2)n2c3c(cccc13)CCC2 [Compound 3],115,96
FC(F)(F)c1c(CCCc2ccccc2)n2c3c(cccc13)CCC2 [Compound 4],143,205
COc1cc2c3c(c1)c(C(F)(F)F)c(CCc1ccccc1)n3CCC2 [Compound 5],14,17
Oc1cc2c3c(c1)c(C(F)(F)F)c(CCc1ccccc1)n3CCC2 [Compound 6],71,136
FC(F)(F)c1c(CCCc2ccccc2)n2c3c(cccc13)SCC2 [Compound 28],33300,33300
